Patent US20080269102A1, “3-(2-Alkoxycarbonyloxy-Phenyl) Acrylic Acid Esters And Their Use As Precursors For The Delivery Of Olfactory Compounds” (GIVAUDAN SA, priority 2004, published 2008)

Experiments:
[1] = UV-spectra / colour comparison of protected and non-protected fragrance precursor in presence of a fabric conditioner; format: physicochemical; conditions: 0.1 mg/ml in CH3CN/H2O (3:2), visually judged
Procedure: UV-Spectra Comparison (Protected/Non Protected Fragrance in Presence of a Fabric Conditioner)
Solutions A to D, 5 ml each, were prepared using CH3CN/H2O (3:2) as a solvent and their colour visually judged.
After adding a fabric conditioner to a solution comprising an unprotected fragrance precursor (solution A/B) the solution turned bright yellow, whereas a solution comprising a protected fragrance precursor (solution C/D) remains colourless.
The UV-spectra of solutions A to D were recorded and are depicted in FIG. 1.

[2] = additive fabric conditioner (30 mg)

Row | Colour [1, 2] | Colour ([1]; additive none) | melting point [°C] | Compound
1 | colourless | colourless | – | C=CCCCCCCCCOC(=O)C=Cc1ccccc1OC(=O)Oc1ccccc1C=CC(=O)OCCCCCCCCC=C [Example 3]
2 | – | – | 37 to 39 | CC(C)=CCCC(C)CCOC(=O)C=Cc1ccccc1O (stereo not drawn) [Example 1, 3-(2-Hydroxy-phenyl)acrylic acid 3,7-dimethyl-oct-6-enyl ester]
3 | Bright | colourless | 58 | C=CCCCCCCCCOC(=O)C=Cc1ccccc1O [Example 2, 3-(2-Hydroxy-phenyl)acrylic acid dec-9-enyl ester]
